Values after ≈ are worked out from the molar mass of the structure shown.
Experiments:
normal cell line LX-2 = assay: MTT cytotoxicity assay, normal cell line LX-2; format: cell-based; details: for inhibition at 1 µM / inhibition at 2 µM / inhibition at 4 µM / inhibition at 8 µM / inhibition at 16 µM / inhibition at 32 µM / inhibition at 64 µM / inhibition at 128 µM / IC50: 72 h; for inhibition at 1 µM: LX-2, c 1.00 μM; for inhibition at 1 µM / inhibition at 2 µM / inhibition at 4 µM / inhibition at 8 µM / inhibition at 16 µM / inhibition at 32 µM / inhibition at 64 µM / inhibition at 128 µM: three replicates; for inhibition at 2 µM: LX-2, c 2.00 μM; for inhibition at 4 µM: LX-2, c 4.00 μM; for inhibition at 8 µM: LX-2, c 8.00 μM; for inhibition at 16 µM: LX-2, c 16.00 μM; for inhibition at 32 µM: LX-2, c 32.00 μM; for inhibition at 64 µM: LX-2, c 64.00 μM; for inhibition at 128 µM: LX-2, c 128.00 μM; for IC50: MTT, mean ± SD (n = 3); for activity on the normal cell line LX-2: in words
Description: (§1) The cytotoxicity of all compounds against three human tumor cell lines, SF-268 (CNS cancer), MCF-7 (breast cancer), and HepG2 (hepatoma cancer), and normal cell line LX-2 was tested using the MTT assay. […] All cells were seeded into 96-well plates at 5 × 10^4 cells/ml and incubated at 37°C under a 5% CO2 atmosphere for 24 h. Then, the tested compounds were added. After 72 h, MTT solution was added into each well, which was further incubated. The cell-free supernatant was removed and formazan crystals were subsequently dissolved in DMSO. Optical density (OD) was recorded at 490 nm on a microplate reader to calculate the IC50 values.

HepG2 (hepatoma cancer) = assay: MTT cytotoxicity assay, HepG2 cells; format: cell-based, human; details: Homo sapiens; for inhibition at 1 µM / inhibition at 2 µM / inhibition at 4 µM / inhibition at 8 µM / inhibition at 16 µM / inhibition at 32 µM / inhibition at 64 µM / inhibition at 128 µM: HepG2, 72 h, three replicates, read-out: cell inhibition; for inhibition at 1 µM: HepG2, c 1.00 μM; for inhibition at 2 µM: HepG2, c 2.00 μM; for inhibition at 4 µM: HepG2, c 4.00 μM; for inhibition at 8 µM: HepG2, c 8.00 μM; for inhibition at 16 µM: HepG2, c 16.00 μM; for inhibition at 32 µM: HepG2, c 32.00 μM; for inhibition at 64 µM: HepG2, c 64.00 μM; for inhibition at 128 µM: HepG2, c 128.00 μM; for IC50: HepG2, MTT, 72 h, mean ± SD (n = 3)
Description: (§2) The cytotoxicity of all compounds against three human tumor cell lines, SF-268 (CNS cancer), MCF-7 (breast cancer), and HepG2 (hepatoma cancer), and normal cell line LX-2 was tested using the MTT assay. Adriamycin was used as a positive control. All cells were seeded into 96-well plates at 5 × 10^4 cells/ml and incubated at 37°C under a 5% CO2 atmosphere for 24 h. Then, the tested compounds were added. After 72 h, MTT solution was added into each well, which was further incubated. The cell-free supernatant was removed and formazan crystals were subsequently dissolved in DMSO. Optical density (OD) was recorded at 490 nm on a microplate reader to calculate the IC50 values.

[1] = tested on: three human cancer cell lines (SF-268, MCF-7, and HepG2); assay: MTT cytotoxicity, summary over three human cancer cell lines; format: cell-based; details: for IC50: Homo sapiens, read-out: IC50 values, range over three cell lines
Description: as §2

SF-268 (CNS cancer) = assay: MTT cytotoxicity assay, SF-268 cells; format: cell-based, human; details: Homo sapiens; for inhibition at 1 µM / inhibition at 2 µM / inhibition at 4 µM / inhibition at 8 µM / inhibition at 16 µM / inhibition at 32 µM / inhibition at 64 µM / inhibition at 128 µM: SF-268, 72 h, SF268 cells, triplicate values, read-out: cell inhibition; for inhibition at 1 µM: c 1.00 μM; for inhibition at 2 µM: c 2.00 μM; for inhibition at 4 µM: c 4.00 μM; for inhibition at 8 µM: c 8.00 μM; for inhibition at 16 µM: c 16.00 μM; for inhibition at 32 µM: c 32.00 μM; for inhibition at 64 µM: c 64.00 μM; for inhibition at 128 µM: c 128.00 μM; for IC50: SF-268, MTT, 72 h, mean ± SD (n = 3), read-out: IC50 SF268
Description: as §2

MCF-7 (breast cancer) = assay: MTT cytotoxicity assay, MCF-7 cells; format: cell-based, human; details: Homo sapiens; for inhibition at 1 µM / inhibition at 2 µM / inhibition at 4 µM / inhibition at 8 µM / inhibition at 16 µM / inhibition at 32 µM / inhibition at 64 µM / inhibition at 128 µM: MCF7, 72 h, three replicates, read-out: cell inhibition; for inhibition at 1 µM: MCF-7, c 1.00 μM; for inhibition at 2 µM: MCF-7, c 2.00 μM; for inhibition at 4 µM: MCF-7, c 4.00 μM; for inhibition at 8 µM: MCF-7, c 8.00 μM; for inhibition at 16 µM: MCF-7, c 16.00 μM; for inhibition at 32 µM: MCF-7, c 32.00 μM; for inhibition at 64 µM: MCF-7, c 64.00 μM; for inhibition at 128 µM: MCF-7, c 128.00 μM; for IC50: MCF7, MTT, 72 h, mean ± SD (n = 3)
Description: as §1

MRSA (JCSC 3063) = assay: Antibacterial assay, broth macrodilution, MRSA; format: cell-based; details: Staphylococcus aureus
Description: Antibacterial activity of all compounds against MRSA (JCSC 3063) and E. coli (ATCC 8739) was tested by the broth […] method on 96-well plates according to the CLSI recommendation ([Li et al., 2014]).

Structure (SMILES)	inhibition at 1 µM (normal cell line LX-2) [%]	inhibition at 2 µM (normal cell line LX-2) [%]	inhibition at 4 µM (normal cell line LX-2) [%]	inhibition at 8 µM (normal cell line LX-2) [%]	inhibition at 16 µM (normal cell line LX-2) [%]	inhibition at 32 µM (normal cell line LX-2) [%]	inhibition at 64 µM (normal cell line LX-2) [%]	inhibition at 128 µM (normal cell line LX-2) [%]	IC50 (normal cell line LX-2) [µM]	inhibition at 1 µM (HepG2 (hepatoma cancer)) [%]	inhibition at 2 µM (HepG2 (hepatoma cancer)) [%]	inhibition at 4 µM (HepG2 (hepatoma cancer)) [%]	inhibition at 8 µM (HepG2 (hepatoma cancer)) [%]	inhibition at 16 µM (HepG2 (hepatoma cancer)) [%]	inhibition at 32 µM (HepG2 (hepatoma cancer)) [%]	inhibition at 64 µM (HepG2 (hepatoma cancer)) [%]	inhibition at 128 µM (HepG2 (hepatoma cancer)) [%]	IC50 (HepG2 (hepatoma cancer)) [µM]	inhibition at 1 µM (SF-268 (CNS cancer)) [%]	inhibition at 2 µM (SF-268 (CNS cancer)) [%]	further results
CC(C)[C@@H](C)/C=C/[C@@H](C)[C@H]1CCC(=O)[C@]23CC(=O)C4=CC(=O)CC[C@]4(C)[C@H]2CC[C@]13C [compound 7, dankasterone A]	14.7	18.4	26.4	31.4	33.1	43.2	81.3	92.6	> 40	31.1	39.6	49	76.9	83.3	98	99	98.5	4.9 ± 0.9	16.3	31.1	activity on the normal cell line LX-2 (normal cell line LX-2): not active; cell inhibition against three human cancer cell lines, in words [1]: good cell inhibition; IC50 [1]: 3.6 to 15.8 µM; inhibition at 4 µM (SF-268 (CNS cancer)): 46.5%; inhibition at 8 µM (SF-268 (CNS cancer)): 58.4%; inhibition at 16 µM (SF-268 (CNS cancer)): 69.7%; inhibition at 32 µM (SF-268 (CNS cancer)): 90.9%; inhibition at 64 µM (SF-268 (CNS cancer)): 96.1%; inhibition at 128 µM (SF-268 (CNS cancer)): 99.2%; IC50 (SF-268 (CNS cancer)): 6.7 ± 0.7 µM; inhibition at 1 µM (MCF-7 (breast cancer)): 35.5%; inhibition at 2 µM (MCF-7 (breast cancer)): 47.2%; inhibition at 4 µM (MCF-7 (breast cancer)): 64.9%; inhibition at 8 µM (MCF-7 (breast cancer)): 72.1%; inhibition at 16 µM (MCF-7 (breast cancer)): 81%; inhibition at 32 µM (MCF-7 (breast cancer)): 98.2%; inhibition at 64 µM (MCF-7 (breast cancer)): 97.5%; inhibition at 128 µM (MCF-7 (breast cancer)): 98.3%; IC50 (MCF-7 (breast cancer)): 3.6 ± 1.1 µM
CN[C@H](CC(C)C)C(=O)N[C@H]1C(=O)N[C@@H](CC(N)=O)C(=O)N[C@H]2C(=O)N[C@H]3C(=O)N[C@H](C(=O)N[C@H](C(=O)O)c4cc(O)cc(O)c4-c4cc3ccc4O)[C@H](O)c3ccc(c(Cl)c3)Oc3cc2cc(c3O[C@@H]2O[C@H](CO)[C@@H](O)[C@H](O)[C@H]2O[C@H]2C[C@](C)(N)[C@H](O)[C@H](C)O2)Oc2ccc(cc2Cl)[C@H]1O [Vancomycin]																					MIC (MRSA (JCSC 3063)): 1.25 µg/mL (≈ 0.863 µM)
C/C(=C\C=C\[C@]1(C)OC(=O)[C@@H](C)[C@@H]1O)[C@H](C)O [compound 2, colletolides A]	4.42	5.31	11.3	19.3	24.4	40.4	79.4	80.5	> 40	2.57	3.48	7.34	14.6	19.4	27.5	60.5	75	> 40	3.14	4.41	inhibition at 4 µM (SF-268 (CNS cancer)): 8.45%; inhibition at 8 µM (SF-268 (CNS cancer)): 9.12%; inhibition at 16 µM (SF-268 (CNS cancer)): 19.4%; inhibition at 32 µM (SF-268 (CNS cancer)): 27.1%; inhibition at 64 µM (SF-268 (CNS cancer)): 51.5%; inhibition at 128 µM (SF-268 (CNS cancer)): 70.1%; IC50 (SF-268 (CNS cancer)): > 40 µM; inhibition at 1 µM (MCF-7 (breast cancer)): 1.03%; inhibition at 2 µM (MCF-7 (breast cancer)): 2.87%; inhibition at 4 µM (MCF-7 (breast cancer)): 2.35%; inhibition at 8 µM (MCF-7 (breast cancer)): 12.7%; inhibition at 16 µM (MCF-7 (breast cancer)): 17.4%; inhibition at 32 µM (MCF-7 (breast cancer)): 22.6%; inhibition at 64 µM (MCF-7 (breast cancer)): 53.1%; inhibition at 128 µM (MCF-7 (breast cancer)): 70.1%; IC50 (MCF-7 (breast cancer)): > 40 µM
CCCC(O)C1=C(C)C(=O)CC1C (stereo not shown) [compound 4, phomotenone]	7.34	9.3	12	18.1	24.6	41.1	70	87.1	> 40	6.5	7.63	14.3	20.2	31.4	37.3	54.7	73	> 40	5.57	8.31	inhibition at 4 µM (SF-268 (CNS cancer)): 7.46%; inhibition at 8 µM (SF-268 (CNS cancer)): 13.1%; inhibition at 16 µM (SF-268 (CNS cancer)): 23.8%; inhibition at 32 µM (SF-268 (CNS cancer)): 46.7%; inhibition at 64 µM (SF-268 (CNS cancer)): 74.3%; inhibition at 128 µM (SF-268 (CNS cancer)): 82.1%; IC50 (SF-268 (CNS cancer)): > 40 µM; inhibition at 1 µM (MCF-7 (breast cancer)): 3.45%; inhibition at 2 µM (MCF-7 (breast cancer)): 7.63%; inhibition at 4 µM (MCF-7 (breast cancer)): 13.1%; inhibition at 8 µM (MCF-7 (breast cancer)): 20.4%; inhibition at 16 µM (MCF-7 (breast cancer)): 27.3%; inhibition at 32 µM (MCF-7 (breast cancer)): 36.1%; inhibition at 64 µM (MCF-7 (breast cancer)): 50.6%; inhibition at 128 µM (MCF-7 (breast cancer)): 72.2%; IC50 (MCF-7 (breast cancer)): > 40 µM
CC(C)[C@@H](C)C=C[C@@H](C)[C@H]1CC[C@@]2(O)C3=CC(=O)C4=CC(=O)CC[C@]4(C)[C@H]3CC[C@]12C [compound 8, 14α-hydroxyergosta-4,7,22-triene-3,6-dione]	13.6	19.2	28	35.9	41.6	48.5	73.4	90.3	> 40	20.3	27.1	34.1	46.7	58.6	78.4	89	94.3	15.8 ± 1.3	21.4	30.2	activity on the normal cell line LX-2 (normal cell line LX-2): not active; cell inhibition against three human cancer cell lines, in words [1]: good cell inhibition; IC50 [1]: 3.6 to 15.8 µM; inhibition at 4 µM (SF-268 (CNS cancer)): 44.3%; inhibition at 8 µM (SF-268 (CNS cancer)): 46.8%; inhibition at 16 µM (SF-268 (CNS cancer)): 81.4%; inhibition at 32 µM (SF-268 (CNS cancer)): 85.3%; inhibition at 64 µM (SF-268 (CNS cancer)): 92.4%; inhibition at 128 µM (SF-268 (CNS cancer)): 97.3%; IC50 (SF-268 (CNS cancer)): 8.3 ± 0.5 µM; inhibition at 1 µM (MCF-7 (breast cancer)): 21.5%; inhibition at 2 µM (MCF-7 (breast cancer)): 26.3%; inhibition at 4 µM (MCF-7 (breast cancer)): 35.6%; inhibition at 8 µM (MCF-7 (breast cancer)): 47.3%; inhibition at 16 µM (MCF-7 (breast cancer)): 72.4%; inhibition at 32 µM (MCF-7 (breast cancer)): 89.1%; inhibition at 64 µM (MCF-7 (breast cancer)): 97.3%; inhibition at 128 µM (MCF-7 (breast cancer)): 96.2%; IC50 (MCF-7 (breast cancer)): 11.4 ± 0.3 µM

Source: paper PMC8640094, “Diaportones A–C: Three New Metabolites From Endophytic Fungus Diaporthe foeniculina BZM-15” (Frontiers in Chemistry, 2021)
